Laboratory results as given in patent US9206232B2, “Organic compounds and their uses” (Novartis AG, priority 2009, dated 2015).

Experiments:
[1] = target: HCV NS3-4A serine protease (full-length NS3-4A protein) (Hepatitis C virus genotype 1a (isolate 1) (HCV), UniProt P26664); assay: HCV NS3-4A protease assay; assay type: biochemical, HCV genotype 1a; details: genotype 1a strain HCV-1, fluorogenic peptide substrate, read-out: Protease assay Ex. 12 IC50
Experimental: The inhibitory activity of certain compounds of Table A against HCV NS3-4A serine protease is determined in a homogenous assay using the full-length NS3-4A protein (genotype 1a, strain HCV-1) and a commercially available internally-quenched fluorogenic peptide substrate as described by Taliani, M., et al. 1996 Anal. Biochem. 240:60-67, which is incorporated by reference in its entirety.

HCV = details: ribavirin alone; cited from earlier work

Sequence of HCV NS3-4A serine protease (full-length NS3-4A protein) (P26664 1027-1657): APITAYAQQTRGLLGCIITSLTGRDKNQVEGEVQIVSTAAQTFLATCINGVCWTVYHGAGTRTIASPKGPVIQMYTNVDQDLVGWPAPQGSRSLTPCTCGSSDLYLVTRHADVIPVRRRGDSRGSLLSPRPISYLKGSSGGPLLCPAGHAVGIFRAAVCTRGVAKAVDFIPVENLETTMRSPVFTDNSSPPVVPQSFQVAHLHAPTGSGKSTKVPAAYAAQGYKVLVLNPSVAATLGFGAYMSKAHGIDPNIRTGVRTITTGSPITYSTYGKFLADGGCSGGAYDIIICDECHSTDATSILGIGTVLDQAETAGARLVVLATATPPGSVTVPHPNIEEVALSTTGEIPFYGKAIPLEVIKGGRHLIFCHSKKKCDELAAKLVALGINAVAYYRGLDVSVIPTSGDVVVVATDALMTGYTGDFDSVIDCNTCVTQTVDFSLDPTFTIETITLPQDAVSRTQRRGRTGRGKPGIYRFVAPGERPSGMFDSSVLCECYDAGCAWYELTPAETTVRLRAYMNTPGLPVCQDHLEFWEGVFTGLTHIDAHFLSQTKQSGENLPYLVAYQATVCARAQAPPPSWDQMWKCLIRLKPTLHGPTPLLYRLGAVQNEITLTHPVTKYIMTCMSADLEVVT
Sequence of HCV NS3-4A serine protease (full-length NS3-4A protein) (P26664 1658-1711 partner): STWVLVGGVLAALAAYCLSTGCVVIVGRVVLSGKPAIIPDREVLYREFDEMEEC

## [2H]C([2H])([2H])C([2H])(N1CCCC[C@H]1C(=O)NC(C(=O)N[C@H](C(=O)N1C[C@]2(C[C@H]1C(=O)N[C@]1(C(=O)NS(=O)(=O)N3CCCC3)C[C@H]1C=C)C(C)(C)C21CCC1)C(C)(C)C)C1CCCCC1)C([2H])([2H])[2H] (some centres unmarked) [Compound 145]
[1]
  IC50: 5.9 nM

## C=C[C@@H]1C[C@]1(NC(=O)[C@@H]1C[C@@]2(CN1C(=O)[C@@H](NC(=O)[C@@H](NC(=O)[C@@H]1Cc3[nH]cnc3CN1)C(C)(C)C)C(C)(C)C)C(C)(C)C21CCC1)C(=O)NS(=O)(=O)N1CCCC1 [Example 29, (5R,8S)-7-[(2S)-2-{[(2S)-3,3-dimethyl-2-{[(6S)-4,5,6,7-tetrahydro-1H-imidazo[4,5-c]pyridin-6-ylcarbonyl]amino}butanoyl]amino}-3,3-dimethylbutanoyl]-10,10-dimethyl-N-{(1 R,2S)-1-[(pyrrolidin-1-ylsulfonyl)carbamoyl]-2-vinylcyclopropyl}-7-azadispiro[3.0.4.1]decane-8-carboxamide]
[1]
  IC50: 40 nM

## C=C[C@@H]1C[C@]1(NC(=O)[C@@H]1C[C@@]2(CN1C(=O)[C@@H](NC(=O)[C@@H](NC(=O)[C@@H]1CCCCN1C(C)C)C1CCCCC1)C1CCCC1)C(C)(C)C21CCC1)C(=O)NS(=O)(=O)N1CCCC1 [Example 66, (5R,8S)-7-[(2S)-2-{[(2S)-2-cyclohexyl-2-({[(2S)-1-isopropylpiperidin-2-yl]carbonyl}amino)acetyl]amino}-2-cyclopentylacetyl]-10,10-dimethyl-N-{(1R,2S)-1-[(pyrrolidin-1-ylsulfonyl)carbamoyl]-2-vinylcyclopropyl}-7-azadispiro[3.0.4.1]decane-8-carboxamide]
[1]
  IC50: 5.5 nM

## NC(=O)c1ncn([C@@H]2O[C@H](CO)[C@@H](O)[C@H]2O)n1 [Ribavirin, ribavirin]
HCV
  effect on serum levels of HCV-RNA: does not lower serum levels of HCV-RNA
  patients with serum amino transferase levels reduced to normal: 40 % of patients
